Test results from the supplement of paper PMC11208160.

Assay: recombinant UMI read abundance after kanamycin selection (control-corrected) (log10(CPM+1)); higher = more efficient recombination; extreme values may be limits of the assay; sequences stand for … in AGTGCAGAGAAAATCGGCCAGTTTTCTCTGCCTGCAGTCCGCATGCCGTGGGACCCCTTGGGTTCTAACCTGTTGCCTAGATTTATGCAGCGGACTGCCTTTCTCCCAAAGTGATAAACCGG…AGGTTGGTTTCACT; site = the 11-nt donor
How it was run: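 Sequenced counts of recombinant UMIs were turned into CPM, averaged across replicates and scaled with control-derived factors. The reported figure is log10(CPM+1). Those UMIs, each 12 nt long, tagged donor and donor-binding-loop pairs on a plasmid with a promoterless kanamycin gene, screened as a pool in Escherichia coli with IPTG (0.07 mM) plus kanamycin or without selection.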
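Also: IS621 bridge recombinase in Escherichia coli cells against a fixed T5 target plasmid.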

| Sequence | recombinant UMI read abundance (log10) |
| --- | --- |
| GCGAAGCCATGGACCGGTTTTCCCGGTAATCCGTATTTGGG (site TCGAAGCCTCC) | 0.0116 |
| GCGAATCCATGGACCGGTTTTCCCGGTAATCCGTATTTGGG (site GCGAAACCTCC) | 0.0049 |
| GCGAATCCATGGACCGGTTTTCCCGGTAATCCGTATTTGGG (site GCGAACCCTCC) | 0 |
| GCGAATCCATGGACCGGTTTTCCCGGTAATCCGTATTTGGG (site GCGAAGCCTCC) | 0.23 |
| GCGAATCCATGGACCGGTTTTCCCGGTAATCCGTATTTGGG (site GCGAATCCTCC) | 0.00555 |
| GCGACGCCATGGACCGGTTTTCCCGGTAATCCGTATTTGTC (site GCGACGCCTGA) | 2.1 |
| GCGAGAACATGGACCGGTTTTCCCGGTAATCCGTATTTGCT (site GCGAAAACTAG) | 1.35 |
| GCGAGAACATGGACCGGTTTTCCCGGTAATCCGTATTTGCT (site GCGACAACTAG) | 0 |
| GCGAGAACATGGACCGGTTTTCCCGGTAATCCGTATTTGCT (site GCGAGAACTAG) | 2.24 |
| GCGAGAACATGGACCGGTTTTCCCGGTAATCCGTATTTGCT (site GCGATAACTAG) | 0.492 |
| GCGAGCTCATGGACCGGTTTTCCCGGTAATCCGTATTTGGG (site GCGAGCTCTCC) | 0.714 |
| GCGATCCCATGGACCGGTTTTCCCGGTAATCCGTATTTGCG (site GCGATCCCTCG) | 1.71 |
| GCGCCCTCATGGACCGGTTTTCCCGGTAATCCGTATTTGGC (site TGAAGTCCTCT) | 0.0178 |
| GCGCCGACATGGACCGGTTTTCCCGGTAATCCGTATTTGAC (site GCGCCGACTGT) | 2.07 |
| GCGCGAACATGGACCGGTTTTCCCGGTAATCCGTATTTGAC (site GCGCGAACTGT) | 1.77 |
| GCGCGCGCATGGACCGGTTTTCCCGGTAATCCGTATTTGGA (site GCGCGCGCTTC) | 0.527 |
| GCGCGGGCATGGACCGGTTTTCCCGGTAATCCGTATTTGGC (site GCGCGGGCTGC) | 2.54 |
| GCGCTAACATGGACCGGTTTTCCCGGTAATCCGTATTTGAC (site GCGCTAACTGT) | 2.61 |
| GCGCTAGCATGGACCGGTTTTCCCGGTAATCCGTATTTGCA (site GCGCTAGCTTG) | 2.2 |
| GCGCTGGCATGGACCGGTTTTCCCGGTAATCCGTATTTGCG (site GCGCTGGCTCG) | 0.891 |
| GCGGAATCATGGACCGGTTTTCCCGGTAATCCGTATTTGTT (site GCGGAATCTAA) | 2.76 |
| GCGGAGCCATGGACCGGTTTTCCCGGTAATCCGTATTTGGG (site GCGAAGCCTCC) | 0.0138 |
| GCGGAGCCATGGACCGGTTTTCCCGGTAATCCGTATTTGGG (site GCGCAGCCTCC) | 0 |
| GCGGAGCCATGGACCGGTTTTCCCGGTAATCCGTATTTGGG (site GCGGAGCCTCC) | 0.0323 |
| GCGGAGCCATGGACCGGTTTTCCCGGTAATCCGTATTTGGG (site GCGTAGCCTCC) | 0.0221 |

| Sequence | recombinant UMI read abundance (log10) |
| --- | --- |
| GCGGAGGCATGGACCGGTTTTCCCGGTAATCCGTATTTGAG (site GCGGAGGCTCT) | 1.89 |
| GCGGCCCCATGGACCGGTTTTCCCGGTAATCCGTATTTGAT (site GCGGCCCCTAT) | 0.00951 |
| GCGGCGACATGGACCGGTTTTCCCGGTAATCCGTATTTGGC (site GCGGCGACTGC) | 1.99 |
| GCGGGTGCATGGACCGGTTTTCCCGGTAATCCGTATTTGTA (site GCGGGTGCTTA) | 2.6 |
| GCGTAATCATGGACCGGTTTTCCCGGTAATCCGTATTTGCC (site GCGTAATCTGG) | 2.11 |
| GCGTACGCATGGACCGGTTTTCCCGGTAATCCGTATTTGTT (site GCGTACGCTAA) | 1.84 |
| GCGTAGCCATGGACCGGTTTTCCCGGTAATCCGTATTTGGG (site GCGAAGCCTCC) | 0.00823 |
| GCGTAGCCATGGACCGGTTTTCCCGGTAATCCGTATTTGGG (site GCGCAGCCTCC) | 0.00818 |
| GCGTAGCCATGGACCGGTTTTCCCGGTAATCCGTATTTGGG (site GCGGAGCCTCC) | 0.0167 |
| GCGTAGCCATGGACCGGTTTTCCCGGTAATCCGTATTTGGG (site GCGTAGCCTCC) | 0.0103 |
| GCGTCACCATGGACCGGTTTTCCCGGTAATCCGTATTTGTT (site GCGTCACCTAA) | 0.0187 |
| GCGTTTACATGGACCGGTTTTCCCGGTAATCCGTATTTGCT (site ACGTTTACTAG) | 1.3 |
| GCGTTTACATGGACCGGTTTTCCCGGTAATCCGTATTTGCT (site CCGTTTACTAG) | 0 |
| GCGTTTACATGGACCGGTTTTCCCGGTAATCCGTATTTGCT (site GCGTTTACTAG) | 1.6 |
| GCGTTTACATGGACCGGTTTTCCCGGTAATCCGTATTTGCT (site TCGTTTACTAG) | 0.474 |
| GCTAAAACATGGACCGGTTTTCCCGGTAATCCGTATTTGCT (site GCAAAAACTAG) | 0 |
| GCTAAAACATGGACCGGTTTTCCCGGTAATCCGTATTTGCT (site GCCAAAACTAG) | 0 |
| GCTAAAACATGGACCGGTTTTCCCGGTAATCCGTATTTGCT (site GCGAAAACTAG) | 1.28 |
| GCTAAAACATGGACCGGTTTTCCCGGTAATCCGTATTTGCT (site GCTAAAACTAG) | 1.01 |
| GCTAACTCATGGACCGGTTTTCCCGGTAATCCGTATTTGGG (site GCTAACTCTCC) | 0.0314 |
| GCTAAGCCATGGACCGGTTTTCCCGGTAATCCGTATTTGGG (site GCAAAGCCTCC) | 0.00437 |
| GCTAAGCCATGGACCGGTTTTCCCGGTAATCCGTATTTGGG (site GCCAAGCCTCC) | 0.0229 |
| GCTAAGCCATGGACCGGTTTTCCCGGTAATCCGTATTTGGG (site GCGAAGCCTCC) | 0.00564 |
| GCTAAGCCATGGACCGGTTTTCCCGGTAATCCGTATTTGGG (site GCTAAGCCTCC) | 0.0172 |
| GCTAAGTCATGGACCGGTTTTCCCGGTAATCCGTATTTGTG (site GCTAAGTCTCA) | 2.06 |

| Sequence | recombinant UMI read abundance (log10) |
| --- | --- |
| GCTACAGCATGGACCGGTTTTCCCGGTAATCCGTATTTGCC (site GCTACAGCTGG) | 1.42 |
| GCTACAGCATGGACCGGTTTTCCCGGTAATCCGTATTTGCC (site GCTACCGCTGG) | 0 |
| GCTACAGCATGGACCGGTTTTCCCGGTAATCCGTATTTGCC (site GCTACGGCTGG) | 0.477 |
| GCTACAGCATGGACCGGTTTTCCCGGTAATCCGTATTTGCC (site GCTACTGCTGG) | 0 |
| GCTACCCCATGGACCGGTTTTCCCGGTAATCCGTATTTGGA (site GCTACCCCTTC) | 0.0342 |
| GCTACCGCATGGACCGGTTTTCCCGGTAATCCGTATTTGCC (site GCTACAGCTGG) | 0 |
| GCTACCGCATGGACCGGTTTTCCCGGTAATCCGTATTTGCC (site GCTACCGCTGG) | 1.61 |
| GCTACCGCATGGACCGGTTTTCCCGGTAATCCGTATTTGCC (site GCTACGGCTGG) | 0 |
| GCTACCGCATGGACCGGTTTTCCCGGTAATCCGTATTTGCC (site GCTACTGCTGG) | 0 |
| GCTACGTCATGGACCGGTTTTCCCGGTAATCCGTATTTGTT (site GATACGTCTAA) | 0.00849 |
| GCTACGTCATGGACCGGTTTTCCCGGTAATCCGTATTTGTT (site GCTACGTCTAA) | 0.808 |
| GCTACGTCATGGACCGGTTTTCCCGGTAATCCGTATTTGTT (site GGTACGTCTAA) | 0.0111 |
| GCTACGTCATGGACCGGTTTTCCCGGTAATCCGTATTTGTT (site GTTACGTCTAA) | 0.0153 |
| GCTACTGCATGGACCGGTTTTCCCGGTAATCCGTATTTGCT (site GCTACTGCTAG) | 1.64 |
| GCTACTGCATGGACCGGTTTTCCCGGTAATCCGTATTTGCT (site GCTACTGCTCG) | 0.00284 |
| GCTACTGCATGGACCGGTTTTCCCGGTAATCCGTATTTGCT (site GCTACTGCTGG) | 0 |
| GCTACTGCATGGACCGGTTTTCCCGGTAATCCGTATTTGCT (site GCTACTGCTTG) | 0 |
| GCTAGTGCATGGACCGGTTTTCCCGGTAATCCGTATTTGGT (site ACTAGTGCTAC) | 1.31 |
| GCTAGTGCATGGACCGGTTTTCCCGGTAATCCGTATTTGGT (site CCTAGTGCTAC) | 1.65 |
| GCTAGTGCATGGACCGGTTTTCCCGGTAATCCGTATTTGGT (site GCTAGTGCTAC) | 1.73 |
| GCTAGTGCATGGACCGGTTTTCCCGGTAATCCGTATTTGGT (site TCTAGTGCTAC) | 0.581 |
| GCTATGGCATGGACCGGTTTTCCCGGTAATCCGTATTTGAA (site GCTATGGCTTT) | 1.55 |
| GCTCCAACATGGACCGGTTTTCCCGGTAATCCGTATTTGAA (site GCTCCAACTTT) | 0.939 |
| GCTCCAACATGGACCGGTTTTCCCGGTAATCCGTATTTGTA (site GATCCAACTTA) | 0.0429 |
| GCTCCAACATGGACCGGTTTTCCCGGTAATCCGTATTTGTA (site GCTCCAACTTA) | 0.877 |
